Molecules are shown by their SMILES.

These results are taken from patent US20250230193A1, “CYCLIC COMPOUND HAVING SELECTIVE KRAS INHIBITORY EFFECT ON HRAS AND NRAS” (CHUGAI SEIYAKU KABUSHIKI KAISHA, priority 2022, published 2025).

The target of assay [1] is GDP-bound NRAS wild-type protein (Homo sapiens, UniProt P01111). Nature of the assay: Binding to NRAS by surface plasmon resonance (SPR), Single Cycle Kinetics. The settings on record: SPR, GDP-bound NRAS wild-type vs GDP-bound KRAS wild-type.
Chain of GDP-bound NRAS wild-type protein (P01111 whole entry): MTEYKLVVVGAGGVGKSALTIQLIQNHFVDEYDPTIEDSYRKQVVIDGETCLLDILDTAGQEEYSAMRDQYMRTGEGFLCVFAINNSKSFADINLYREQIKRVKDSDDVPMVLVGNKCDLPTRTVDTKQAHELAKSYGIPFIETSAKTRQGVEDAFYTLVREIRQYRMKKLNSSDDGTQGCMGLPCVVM
The target of assay [2] is GDP-bound HRAS wild-type protein (Homo sapiens, UniProt P01112). Nature of the assay: Binding to HRAS by surface plasmon resonance (SPR), Single Cycle Kinetics. The note with it: SPR, GDP-bound HRAS wild-type vs GDP-bound KRAS wild-type.
Chain of GDP-bound HRAS wild-type protein (P01112 whole entry): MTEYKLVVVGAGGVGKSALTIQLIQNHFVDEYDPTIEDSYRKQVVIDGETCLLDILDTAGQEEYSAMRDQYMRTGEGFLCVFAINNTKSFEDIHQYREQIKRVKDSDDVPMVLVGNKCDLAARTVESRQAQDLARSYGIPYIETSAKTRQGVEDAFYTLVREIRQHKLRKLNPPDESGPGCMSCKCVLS

With `CCOC[C@H]1C(=O)N[C@@H]([C@@H](C)CC)C(=O)N(C)CC(=O)N(C)[C@H]2C/C=C\CCN(C2=O)[C@@H](Cc2ccc(C)cc2)C(=O)N(C)CC(=O)N[C@@H](CCc2ccc(C(F)(F)F)c(Cl)c2)C(=O)N2C[C@H](OCC)C[C@H]2C(=O)NC2(CC(C)(C)C2)C(=O)N(C)[C@@H](C2CCCC2)C(=O)N(C)[C@H](C(=O)N(C)CC)CC(=O)N1C` [PP2401], the “NRAS/KRAS (ratio of KD value with respect to NRAS to KD value with respect to KRAS)” value in assay [1] is “A (a compound having 10 or more and less than 20 is denoted as A)”. In addition, the “HRAS/KRAS (ratio of KD value with respect to HRAS to KD value with respect to KRAS)” value in assay [2] was “A (a compound having 10 or more and less than 20 is denoted as A)”.
For `CCCOC[C@H]1C(=O)N[C@@H]([C@@H](C)CC)C(=O)N(C)CC(=O)N(C)[C@H]2C/C=C\CCN(C2=O)[C@@H](Cc2ccc(C)cc2)C(=O)N(C)CC(=O)N[C@@H](CCc2ccc(C(F)(F)F)c(Cl)c2)C(=O)N2C[C@H](OCC)C[C@H]2C(=O)NC2(CC(C)(C)C2)C(=O)N(C)[C@@H](C2CCCC2)C(=O)N(C)[C@H](C(=O)N(C)C)CC(=O)N1C` [PP2402], in assay [1], the “NRAS/KRAS (ratio of KD value with respect to NRAS to KD value with respect to KRAS)” value was “A (a compound having 10 or more and less than 20 is denoted as A)”. Moreover, the “HRAS/KRAS (ratio of KD value with respect to HRAS to KD value with respect to KRAS)” value in assay [2] is “A (a compound having 10 or more and less than 20 is denoted as A)”.
`CCO[C@@H]1C[C@H]2C(=O)NC3(CC(C)(C)C3)C(=O)N(C)[C@@H](C3CCCC3)C(=O)N(C)[C@H](C(=O)N(CC)CC)CC(=O)N(C)[C@@H](COC)C(=O)N[C@@H]([C@@H](C)CC)C(=O)N(C)CC(=O)N(C)[C@H]3C/C=C\CCN(C3=O)[C@@H](Cc3ccc(C)cc3)C(=O)N(C)CC(=O)N[C@@H](CCc3cc(F)c(C(F)(F)F)c(F)c3)C(=O)N2C1` [PP2403]: in assay [1], the “NRAS/KRAS (ratio of KD value with respect to NRAS to KD value with respect to KRAS)” value is “A (a compound having 10 or more and less than 20 is denoted as A)”. In addition, the “HRAS/KRAS (ratio of KD value with respect to HRAS to KD value with respect to KRAS)” value in assay [2] is “A (a compound having 10 or more and less than 20 is denoted as A)”.
Turning to `CCOC[C@H]1C(=O)N[C@@H]([C@@H](C)CC)C(=O)N(C)CC(=O)N(C)[C@H]2C/C=C\CCN(C2=O)[C@@H](Cc2ccc(C)cc2)C(=O)N(C)CC(=O)N[C@@H](CCc2cc(F)c(C(F)(F)F)c(F)c2)C(=O)N2C[C@H](OCC)C[C@H]2C(=O)NC2(CC(C)(C)C2)C(=O)N(C)[C@@H](C2CCCC2)C(=O)N(C)[C@H](C(=O)N(C)CC)CC(=O)N1C` [PP2404], the “NRAS/KRAS (ratio of KD value with respect to NRAS to KD value with respect to KRAS)” value in assay [1] is “A (a compound having 10 or more and less than 20 is denoted as A)”. In addition, the “HRAS/KRAS (ratio of KD value with respect to HRAS to KD value with respect to KRAS)” value in assay [2] was “A (a compound having 10 or more and less than 20 is denoted as A)”.
Consider `CCOC[C@H]1C(=O)N[C@@H]([C@@H](C)CC)C(=O)N(C)CC(=O)N(C)[C@H]2C/C=C\CCN(C2=O)[C@@H](Cc2ccc(C)cc2)C(=O)N(C)CC(=O)N[C@@H](CCc2ccc(C(F)(F)F)c(OC)c2)C(=O)N2C[C@@H](C)C[C@H]2C(=O)NC2(CC(C)(C)C2)C(=O)N(C)[C@@H](C2CCCC2)C(=O)N(C)[C@H](C(=O)N(CC)CC)CC(=O)N1C` [PP2405], for which the “NRAS/KRAS (ratio of KD value with respect to NRAS to KD value with respect to KRAS)” value in assay [1] is “A (a compound having 10 or more and less than 20 is denoted as A)”. Further, the “HRAS/KRAS (ratio of KD value with respect to HRAS to KD value with respect to KRAS)” value in assay [2] was “A (a compound having 10 or more and less than 20 is denoted as A)”.
Take `CCOC[C@H]1C(=O)N[C@@H]([C@@H](C)CC)C(=O)N(C)CC(=O)N(C)[C@H]2C/C=C\CCN(C2=O)[C@@H](Cc2ccc(C)cc2)C(=O)N(C)CC(=O)N[C@@H](CCc2ccc(C(F)(F)F)c(OC)c2)C(=O)N2C[C@H](OCC)C[C@H]2C(=O)NC2(CC(C)(C)C2)C(=O)N(C)[C@@H](C2CCCC2)C(=O)N(C)[C@H](C(=O)N(CC)CC)CC(=O)N1C` [PP2406]: the “NRAS/KRAS (ratio of KD value with respect to NRAS to KD value with respect to KRAS)” value in assay [1] is “A (a compound having 10 or more and less than 20 is denoted as A)”. The “HRAS/KRAS (ratio of KD value with respect to HRAS to KD value with respect to KRAS)” value in assay [2] was “A (a compound having 10 or more and less than 20 is denoted as A)”.
As to `CCOC[C@H]1C(=O)N[C@@H]([C@@H](C)CC)C(=O)N(C)CC(=O)N(C)[C@H]2C/C=C\CCN(C2=O)[C@@H](Cc2ccc(C)cc2)C(=O)N(C)CC(=O)N[C@@H](CCc2cc(F)c(C(F)(F)F)c(F)c2)C(=O)N2C[C@@H](C)C[C@H]2C(=O)NC2(CC(C)(C)C2)C(=O)N(C)[C@@H](C2CCCC2)C(=O)N(C)[C@H](C(=O)N(CC)CC)CC(=O)N1C` [PP2407], in assay [1], the “NRAS/KRAS (ratio of KD value with respect to NRAS to KD value with respect to KRAS)” value is “A (a compound having 10 or more and less than 20 is denoted as A)”. Besides, the “HRAS/KRAS (ratio of KD value with respect to HRAS to KD value with respect to KRAS)” value in assay [2] was “A (a compound having 10 or more and less than 20 is denoted as A)”.
On to `CCOC[C@H]1C(=O)N[C@@H]([C@@H](C)CC)C(=O)N(C)CC(=O)N(C)[C@H]2C/C=C\CCN(C2=O)[C@@H](Cc2ccc(C)cc2)C(=O)N(C)CC(=O)N[C@@H](CCc2cc(F)c(C(F)(F)F)c(F)c2)C(=O)N2C[C@H](OCC)C[C@H]2C(=O)NC2(CC(C)(C)C2)C(=O)N(C)[C@@H](C2CCCC2)C(=O)N(C)[C@H](C(=O)N(CC)CC)CC(=O)N1C` [PP2408], for which the “NRAS/KRAS (ratio of KD value with respect to NRAS to KD value with respect to KRAS)” value in assay [1] is “A (a compound having 10 or more and less than 20 is denoted as A)”. For the same molecule, the “HRAS/KRAS (ratio of KD value with respect to HRAS to KD value with respect to KRAS)” value in assay [2] was “A (a compound having 10 or more and less than 20 is denoted as A)”.
In the case of `CC[C@H](C)[C@@H]1NC(=O)[C@H](CC(C)C)N(C)C(=O)C[C@@H](C(=O)N(C)C)N(C)C(=O)[C@H](C2CCCC2)N(C)C(=O)C2(CC(C)(C)C2)NC(=O)[C@@H]2C[C@H](C)CN2C(=O)[C@H](CCc2ccc(C(F)(F)F)c(OC)c2)NC(=O)CN(C)C(=O)[C@H](Cc2ccc(C)cc2)N2CC/C=C\C[C@@H](C2=O)N(C)C(=O)[C@@H]2CCCN2C1=O` [PP2409], the “NRAS/KRAS (ratio of KD value with respect to NRAS to KD value with respect to KRAS)” value in assay [1] was “A (a compound having 10 or more and less than 20 is denoted as A)”. For the same molecule, the “HRAS/KRAS (ratio of KD value with respect to HRAS to KD value with respect to KRAS)” value in assay [2] was “B (a compound having 3 or more and less than 10 is denoted as B)”.
Consider `CC[C@H](C)[C@@H]1NC(=O)[C@H](CC(C)C)N(C)C(=O)C[C@@H](C(=O)N(C)CC)N(C)C(=O)[C@H](C2CCCC2)N(C)C(=O)C2(CC(C)(C)C2)NC(=O)[C@@H]2C[C@H](C)CN2C(=O)[C@H](CCc2ccc(C(F)(F)F)c(OC)c2)NC(=O)CN(C)C(=O)[C@H](Cc2ccc(C)cc2)N2CC/C=C\C[C@@H](C2=O)N(C)C(=O)[C@@H]2CCCN2C1=O` [PP2410], for which the “NRAS/KRAS (ratio of KD value with respect to NRAS to KD value with respect to KRAS)” value in assay [1] is “A (a compound having 10 or more and less than 20 is denoted as A)”. In addition, the “HRAS/KRAS (ratio of KD value with respect to HRAS to KD value with respect to KRAS)” value in assay [2] is “A (a compound having 10 or more and less than 20 is denoted as A)”.
On to `CC[C@H](C)[C@@H]1NC(=O)[C@H](CC(C)C)N(C)C(=O)C[C@@H](C(=O)N(C)CC)N(C)C(=O)[C@H](C2CCCC2)N(C)C(=O)C2(CC(C)(C)C2)NC(=O)[C@@H]2C[C@H](C)CN2C(=O)[C@H](CCc2cc(F)c(C(F)(F)F)c(F)c2)NC(=O)CN(C)C(=O)[C@H](Cc2ccc(C)cc2)N2CC/C=C\C[C@@H](C2=O)N(C)C(=O)[C@@H]2CCCN2C1=O` [PP2411], for which the “NRAS/KRAS (ratio of KD value with respect to NRAS to KD value with respect to KRAS)” value in assay [1] was “A (a compound having 10 or more and less than 20 is denoted as A)”. Further, the “HRAS/KRAS (ratio of KD value with respect to HRAS to KD value with respect to KRAS)” value in assay [2] was “A (a compound having 10 or more and less than 20 is denoted as A)”.
